# Test results reported in US9737493B2, “Compositions and methods for modulating DNMT1 inhibitor activity” (University of Louisville Research Foundation, Inc., priority 2012, dated 2017).
# Assays:
# [1] = tested on: Hs27 cells; assay: GSH-Glo reduced glutathione content assay; format: cell-based, human; conditions: Hs27, 1 μM XB05, 24 h
# Procedure: (§1) FIG. 8: XB05 Modulates Cellular Stress Responses. (A) A luminescence-based assay for reduced glutathione (GSH) content in cells treated 24 h with XB05 (1 μM for U937 and Hs27, or 2 μM for A549), in the absence or presence of 5 mM GSH. Some cells were treated with buthionine sulfoximine (BSO, 200 μM) plus diethyl maleate (DEM, 1 mM) for 3 h as a positive control for GSH depletion. Bar graph indicates mean+/−SEM from three independent experiments. […] (C) Western blot for Nrf2 in nuclear extracts from cells treated as in part A for either 8 h or 24 h. Membranes were stripped and reprobed for Ku-70 as a loading control. (D) Western blot for phospho-eIF2α (Ser51), total eIF2-α, BiP/Grp78, and GAPDH (loading control) in whole cell extracts from cell lines treated as indicated for 24 h with concentrations of XB05 described in part A. Thapsigargin (TG, 2 μM) was used as a positive control for induction of endoplasmic reticulum (ER) stress.
# (§2) Reduced Glutathione Content Analyses. After treatment as indicated in the figures and in the Brief Description of the Drawings, cells were harvested as described, counted and dispensed at a density of 10,000 cells/well in triplicate on a 96-well white, opaque bioluminescence plate (Corning). Cellular content of reduced glutathione (GSH) was analyzed using the GSH-Glo® Glutathione Assay Kit (Promega) according to the manufacturer's instructions. The chemiluminescent signal was quantified on a Biotek Synergy HT plate-reader (Biotek, Winooski, Vt.) using an integration time of 1 s/well.
# [2] = tested on: U937 cells; assay: GSH-Glo reduced glutathione content assay; format: cell-based, human; conditions: U937, 1 μM XB05, 24 h
# Procedure: as §1, §2
# [3] = tested on: A549 cells; assay: GSH-Glo reduced glutathione content assay; format: cell-based, human; conditions: A549, 2 μM XB05, 24 h
# Procedure: as §1, §2
# [4] = DTNB assay for free sulfhydryls; conditions: 5 mM XB05; 0.25 mM Cys or GSH, pH 8, 30 min, 37° C.
# Procedure: FIG. 12: XB05 is Weakly Reactive with Thiols In Vitro: 0.25 mM Cysteine (Cys, top panel) or glutathione (GSH, bottom panel) were incubated with XB05, diethyl maleate (DEM), or maleimide at the indicated concentrations, or with an equivalent amount of vehicle (DMSO), for 30 min at 37° C. 5,5′-Dithiobis-2-nitrobenzoic acid (DTNB) assays were conducted as described in Methods. Absorbance for triplicate wells was determined at 412 nm. Points represent the mean and standard deviation for triplicate wells. Data shown are representative of two independent experiments.
# Dithiobis-2-nitrobenzoic Acid (DTNB) Assay for Free Sulfhydryls. For each experiment, a 20× working solution of DTNB (2 mM DTNB, 50 mM sodium acetate in 100 mM Tris-HCl, pH 8.0) and 2× solutions of cysteine and GSH (0.5 mM in 100 mM Tris-HCl, pH 8.0) were freshly prepared. 10 mM stock solutions of XB05, diethyl maleate and maleimide were prepared in 100% DMSO, and subsequently serially diluted to 2× working solutions in 100 mM Tris-HCl, pH 8.0. 100 μl each of thiol compounds (final concentration 0.25 mM) and thiol-reactive compounds (final concentrations 0.05-5 mM) or vehicle control (DMSO) were added in duplicate to a 96-well plate and allowed to incubate at 37° C. for 30 minutes. […] Absorbance was read on a Biotek HT Synergy Plate reader (Winooski, Vt.) at 412 nm.
# [5] = tested on: U937 myeloid leukemia cells; assay: MTT cell proliferation assay; format: cell-based, human
# Procedure: (§3) Cell Proliferation Assays. The antiproliferative activity of XB05 was tested using a previously published 3-(4,5-dimethylthiazol-2-yl)-2,5-diphenyltetrazolium bromide (MTT) assay protocol (Girvan et al., “AGRO100 inhibits activation of nuclear factor-kappaB (NF-kappaB) by forming a complex with NF-kappaB essential modulator (NEMO) and nucleolin” Molecular Cancer Therapeutics (2006) Vol. 5, No. 7, pp. 1790-1799). Briefly, cells were seeded in quadruplicate wells in 96-well plates and allowed to adhere overnight. […] Plates were incubated with XB05 for 72 h, during which the cell culture medium was not changed. Cell viability was determined and the background corresponding to medium alone (no cells) was subtracted. Data were analyzed as described in the Brief Description of the Drawings.
# (§4) XB05 has Cancer-Selective Antiproliferative Activity. XB05 was tested to determine its antiproliferative activity in a variety of human cell lines that are derived from malignant tissues or from non-malignant (immortalized but not transformed) cells and listed in FIG. 1B. As described in Materials and Methods, cells were treated with varying concentrations of XB05 for 72 h and evaluated using the MTT cell proliferation assay.
# [6] = tested on: Hs27 non-malignant skin fibroblasts; assay: MTT cell proliferation assay; format: cell-based, human; conditions: Hs27, MTT 72 h
# Procedure: as §3, §4
# [7] = tested on: A549 non-small cell lung cancer cells; assay: MTT cell proliferation assay; format: cell-based, human; conditions: A549, MTT 72 h
# Procedure: as §3, §4
smiles,measurement,setting,value
CCCCCC(O)C#CC(F)(F)Br (centres unmarked) [XB05],increase in GSH,[1],~2 fold
same,change in reduced GSH,[2],depletion of reduced GSH
same,increase in GSH,[3],approximately 1.3 fold
same,depletion of free thiols,[4],40-50%
same,GI50,"[5]; Homo sapiens, U-937, U937, 72 h",< 500 nM
same,sensitivity to XB05,"[5]; U937, MTT 72 h",high sensitivity
same,sensitivity to XB05,[6],low sensitivity
same,sensitivity to XB05,[7],moderate sensitivity
